Legend:
Assay in all cases: relative viability (nuclei count vs DMSO), 5 days (fraction); higher = more cells survive
Sorafenib = compound: CNC(=O)c1cc(Oc2ccc(NC(=O)Nc3ccc(Cl)c(C(F)(F)F)c3)cc2)ccn1 [Sorafenib]
How it was run: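 Lung cancer cell lines in 1536-well plates were exposed by pinning to five library-drug doses (not always all listed) √10 apart, following an overnight hold at 37 °C. MetaXpress counted Hoechst-stained nuclei from 4× images taken after 5 days without medium change. Viability is the median ratio of treated-well to vehicle-well nuclei across plates. Plates required control CV below 25% and at least one doubling.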

Sorafenib + Phenformin = compound: CNC(=O)c1cc(Oc2ccc(NC(=O)Nc3ccc(Cl)c(C(F)(F)F)c3)cc2)ccn1 [Sorafenib] + N=C(N)NC(=N)NCCc1ccccc1 [Phenformin] (partner 250 µM)
How it was run: (§1)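 Lung cancer cell lines, seeded in 1536-well plates, were treated the following day by pin tool with a single drug or with five library-drug doses (not always all listed) in √10 steps on top of a fixed anchor-drug dose. Cells were fixed and nuclei stained in one step after 5 days, and nuclei were counted. Relative viability is the nuclei count for treated wells divided by that for vehicle wells, reported as medians of duplicate plates.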

Sorafenib + Olaparib = compound: CNC(=O)c1cc(Oc2ccc(NC(=O)Nc3ccc(Cl)c(C(F)(F)F)c3)cc2)ccn1 [Sorafenib] + O=C(c1cc(Cc2n[nH]c(=O)c3ccccc23)ccc1F)N1CCN(C(=O)C2CC2)CC1 [Olaparib] (partner 8 µM)
How it was run: as §1

Sorafenib + Linsitinib = compound: CNC(=O)c1cc(Oc2ccc(NC(=O)Nc3ccc(Cl)c(C(F)(F)F)c3)cc2)ccn1 [Sorafenib] + C[C@]1(O)C[C@@H](c2nc(-c3ccc4ccc(-c5ccccc5)nc4c3)c3c(N)nccn32)C1 [Linsitinib] (partner 1 µM)
How it was run: as §1

Sorafenib + Pictilisib = compound: CNC(=O)c1cc(Oc2ccc(NC(=O)Nc3ccc(Cl)c(C(F)(F)F)c3)cc2)ccn1 [Sorafenib] + CS(=O)(=O)N1CCN(Cc2cc3nc(-c4cccc5[nH]ncc45)nc(N4CCOCC4)c3s2)CC1 [Pictilisib] (partner 1 µM)
How it was run: as §1

Sorafenib + Lapatinib = compound: CNC(=O)c1cc(Oc2ccc(NC(=O)Nc3ccc(Cl)c(C(F)(F)F)c3)cc2)ccn1 [Sorafenib] + CS(=O)(=O)CCNCc1ccc(-c2ccc3ncnc(Nc4ccc(OCc5cccc(F)c5)c(Cl)c4)c3c2)o1 [Lapatinib] (partner 2 µM)
How it was run: as §1

Sorafenib + Decitabine = compound: CNC(=O)c1cc(Oc2ccc(NC(=O)Nc3ccc(Cl)c(C(F)(F)F)c3)cc2)ccn1 [Sorafenib] + Nc1ncn([C@H]2C[C@H](O)[C@@H](CO)O2)c(=O)n1 [Decitabine] (partner 2 µM)
How it was run: as §1

Sorafenib + Alpelisib = compound: CNC(=O)c1cc(Oc2ccc(NC(=O)Nc3ccc(Cl)c(C(F)(F)F)c3)cc2)ccn1 [Sorafenib] + Cc1nc(NC(=O)N2CCC[C@H]2C(N)=O)sc1-c1ccnc(C(C)(C)C(F)(F)F)c1 [Alpelisib] (partner 2 µM)
How it was run: as §1

Sorafenib + Foretinib = compound: CNC(=O)c1cc(Oc2ccc(NC(=O)Nc3ccc(Cl)c(C(F)(F)F)c3)cc2)ccn1 [Sorafenib] + COc1cc2c(Oc3ccc(NC(=O)C4(C(=O)Nc5ccc(F)cc5)CC4)cc3F)ccnc2cc1OCCCN1CCOCC1 [Foretinib] (partner 0.25 µM)
How it was run: as §1

A549
relative viability (Sorafenib; 0.08 µM): 1.07
relative viability (Sorafenib; 0.253 µM): 0.921
relative viability (Sorafenib; 8 µM): 0.523
relative viability (Sorafenib + Phenformin; first compound 0.08 µM): 0.213
relative viability (Sorafenib + Phenformin; first compound 0.253 µM): 0.158
relative viability (Sorafenib + Phenformin; first compound 2.53 µM): 0.193
relative viability (Sorafenib + Phenformin; first compound 8 µM): 0.0523
relative viability (Sorafenib + Olaparib; first compound 0.08 µM): 0.496
relative viability (Sorafenib + Olaparib; first compound 0.253 µM): 0.289
relative viability (Sorafenib + Olaparib; first compound 2.53 µM): 0.302
relative viability (Sorafenib + Olaparib; first compound 8 µM): 0.208
relative viability (Sorafenib + Linsitinib; first compound 0.253 µM): 0.622
relative viability (Sorafenib + Linsitinib; first compound 2.53 µM): 0.512
relative viability (Sorafenib + Linsitinib; first compound 8 µM): 0.341
relative viability (Sorafenib + Pictilisib; first compound 0.08 µM): 0.631
relative viability (Sorafenib + Pictilisib; first compound 0.253 µM): 0.5
relative viability (Sorafenib + Pictilisib; first compound 2.53 µM): 0.412
relative viability (Sorafenib + Pictilisib; first compound 8 µM): 0.116
relative viability (Sorafenib + Lapatinib; first compound 0.08 µM): 1.02
relative viability (Sorafenib + Lapatinib; first compound 2.53 µM): 0.962
relative viability (Sorafenib + Lapatinib; first compound 8 µM): 0.208
relative viability (Sorafenib + Decitabine; first compound 0.08 µM): 0.233
relative viability (Sorafenib + Decitabine; first compound 0.253 µM): 0.34
relative viability (Sorafenib + Decitabine; first compound 2.53 µM): 0.218
relative viability (Sorafenib + Decitabine; first compound 8 µM): 0.245
relative viability (Sorafenib + Alpelisib; first compound 0.08 µM): 0.803
relative viability (Sorafenib + Alpelisib; first compound 0.253 µM): 0.664
relative viability (Sorafenib + Alpelisib; first compound 2.53 µM): 0.735
relative viability (Sorafenib + Alpelisib; first compound 8 µM): 0.453
relative viability (Sorafenib + Foretinib; first compound 0.08 µM): 0.904
relative viability (Sorafenib + Foretinib; first compound 0.253 µM): 0.893
relative viability (Sorafenib + Foretinib; first compound 2.53 µM): 0.896
relative viability (Sorafenib + Foretinib; first compound 8 µM): 0.584

Reference: the supplement of paper PMC10307832
